Among the test systems are HOP-92 NSCLC; HOP-62 NSCLC; HCT-15 colon; SF-268 CNS; SF-539 CNS; TK-10 renal; NCI-H460 lung; SK-MEL-2 melanoma; IGROV1 ovarian; MCF7 breast.
Common to all, as to assay: growth of human tumour cells (NCI), 48 h

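In this assay, cells in 96-well plates receive the compound at five concentrations for 48 hours. Endpoints are linearly interpolated between the surrounding concentrations. The concentration for full growth arrest is given as TGI.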

Consider `COc1cc(/C=C2\CC3C4CC[C@H]5C[C@@H](O)CC[C@]5(C)C4CC[C@]3(C)\C2=N\O)cc(OC)c1OC` (stereo not given in full), for which the TGI was over 100 µM in the test on HOP-92 NSCLC; 38.9 µM with HOP-62 NSCLC; over 100 µM with HCT-15 colon; over 100 µM in the test with SF-268 CNS; 34.1 µM in the test with SF-539 CNS; over 100 µM in the test on TK-10 renal. For the same molecule, the TGI is 82.9 µM in the test with NCI-H460 lung, 31.7 µM in the test with SK-MEL-2 melanoma, over 100 µM in the test on IGROV1 ovarian and 26.8 µM in the test on MCF7 breast.
As for `O=S(C(c1ccccc1)=P(c1ccccc1)(c1ccccc1)c1ccccc1)c1ccc(Cl)cc1` (stereo not given), the TGI was 42.2 µM with HOP-92 NSCLC; 64.6 µM in the test with HOP-62 NSCLC; over 100 µM in the test with HCT-15 colon; 87.9 µM in the test on SF-268 CNS; over 100 µM with SF-539 CNS; over 100 µM in the test with TK-10 renal. The TGI was over 100 µM in the test on NCI-H460 lung, 45.9 µM with SK-MEL-2 melanoma, over 100 µM in the test with IGROV1 ovarian and over 100 µM with MCF7 breast.

These data come from PubChem BioAssay (NCI).
